From ChEMBL document CHEMBL1275440, “In vitro activity of telavancin against resistant gram-positive bacteria” (2008)
≈ marks a conversion by molar mass, not a printed value. Calls of active or inactive are those of the source. No cut-off for these calls is given here.

Tests used:
Assay type in all cases: functional
Staphylococcus aureus [1] = experiment: Antibacterial activity against methicillin resistant Staphylococcus aureus MED 2028 osteomyelitis isolate assessed as bacterial count at 2 ug/ml after 24 hrs by time-kill assay
Staphylococcus aureus [2] = experiment: Antibacterial activity against methicillin resistant Staphylococcus aureus MED 2028 osteomyelitis isolate assessed as bacterial count at 1 ug/ml after 2 hrs by time-kill assay
Enterococcus faecium = experiment: Antibacterial activity against vancomycin resistant Enterococcus faecium VanA clinical isolate by broth microdilution method
Streptococcus mitis = experiment: Antibacterial activity against Streptococcus mitis clinical isolate by broth microdilution method
Streptococcus agalactiae [3] = experiment: Antibacterial activity against Streptococcus agalactiae group B clinical isolate by broth microdilution method
[4] = test system: Staphylococcus saprophyticus; experiment: Antibacterial activity against methicillin resistant coagulase-negative Staphylococcus saprophyticus clinical isolate by broth microdilution method
Staphylococcus capitis = experiment: Antibacterial activity against methicillin resistant coagulase-negative Staphylococcus capitis clinical isolate by broth microdilution method
[5] = test system: Staphylococcus auricularis; experiment: Antibacterial activity against methicillin resistant coagulase-negative Staphylococcus auricularis clinical isolate by broth microdilution method
Streptococcus pyogenes [6] = experiment: (§1) Antibacterial activity against Streptococcus pyogenes MED 2040 assessed as bacterial count at […] after 24 hrs by time-kill assay
Streptococcus pyogenes [7] = experiment: (§2) Antibacterial activity against Streptococcus pyogenes MED 2040 assessed as bacterial count at […] after 2 hrs by time-kill assay
Streptococcus pyogenes [8] = experiment: as §1; remark: listed apart in the source
Streptococcus pyogenes [9] = experiment: Antibacterial activity against Streptococcus pyogenes MED 2040 assessed as bacterial count at 0.5 ug/ml after 8 hrs by time-kill assay
Streptococcus pyogenes [10] = experiment: Antibacterial activity against Streptococcus pyogenes MED 2040 assessed as bacterial count at 0.5 ug/ml after 24 hrs by time-kill assay
Enterococcus faecalis [11] = experiment: Antibacterial activity against Enterococcus faecalis ATCC 51575 assessed as bacterial count at 2 ug/ml after 24 hrs by time-kill assay
Enterococcus faecalis [12] = experiment: Antibacterial activity against Enterococcus faecalis ATCC 51575 assessed as bacterial count at 4 ug/ml after 4 hrs by time-kill assay
Enterococcus faecalis [13] = experiment: Antibacterial activity against Enterococcus faecalis ATCC 51575 assessed as bacterial count at 4 ug/ml after 8 hrs by time-kill assay
Streptococcus pyogenes [14] = experiment: Antibacterial activity against Streptococcus pyogenes MED 2040 assessed as bacterial count at […] after 8 hrs by time-kill assay
Streptococcus pyogenes [15] = experiment: as §2; remark: listed apart in the source
Streptococcus agalactiae [16] = experiment: Antibacterial activity against Streptococcus agalactiae MED 2038 assessed as bacterial count at 8 ug/ml after 2 hrs by time-kill assay
Streptococcus agalactiae [17] = experiment: Antibacterial activity against Streptococcus agalactiae MED 2038 assessed as bacterial count at 2 ug/ml after 2 hrs by time-kill assay
Streptococcus agalactiae [18] = experiment: Antibacterial activity against Streptococcus agalactiae MED 2038 assessed as bacterial count at 0.5 ug/ml after 8 hrs by time-kill assay
Streptococcus agalactiae [19] = experiment: (§3) Antibacterial activity against Streptococcus agalactiae MED 2038 assessed as bacterial count at […] after 24 hrs by time-kill assay
Streptococcus agalactiae [20] = experiment: (§4) Antibacterial activity against Streptococcus agalactiae MED 2038 assessed as bacterial count at […] after 4 hrs by time-kill assay
Streptococcus agalactiae [21] = experiment: as §3; remark: listed apart in the source
Streptococcus agalactiae [22] = experiment: as §4; remark: listed apart in the source
Streptococcus pneumoniae [23] = experiment: Antibacterial activity against multidrug resistant Streptococcus pneumoniae MED 1090 assessed as bacterial count at 8 ug/ml after 8 hrs by time-kill assay
Streptococcus pneumoniae [24] = experiment: Antibacterial activity against multidrug resistant Streptococcus pneumoniae MED 1090 assessed as bacterial count at 8 ug/ml after 4 hrs by time-kill assay
Streptococcus pneumoniae [25] = experiment: Antibacterial activity against multidrug resistant Streptococcus pneumoniae MED 1090 assessed as bacterial count at 8 ug/ml after 2 hrs by time-kill assay
Streptococcus pneumoniae [26] = experiment: Antibacterial activity against multidrug resistant Streptococcus pneumoniae MED 1090 assessed as bacterial count at […] after 24 hrs by time-kill assay
Streptococcus pneumoniae [27] = experiment: Antibacterial activity against multidrug resistant Streptococcus pneumoniae MED 1090 assessed as bacterial count at […] after 4 hrs by time-kill assay
Streptococcus pneumoniae [28] = experiment: Antibacterial activity against multidrug resistant Streptococcus pneumoniae MED 1090 assessed as bacterial count at 0.06 ug/ml after 24 hrs by time-kill assay
Streptococcus pneumoniae [29] = experiment: Antibacterial activity against multidrug resistant Streptococcus pneumoniae MED 1090 assessed as bacterial count at 0.06 ug/ml after 8 hrs by time-kill assay
[30] = test system: Staphylococcus epidermidis; experiment: Antibacterial activity against methicillin resistant Staphylococcus epidermidis ATCC 35984 assessed as bacterial count at 8 ug/ml after 8 hrs by time-kill assay
[31] = test system: Staphylococcus epidermidis; experiment: Antibacterial activity against methicillin resistant Staphylococcus epidermidis ATCC 35984 assessed as bacterial count at 2 ug/ml after 2 hrs by time-kill assay
Staphylococcus aureus [32] = experiment: Antibacterial activity against methicillin resistant Staphylococcus aureus MED 1805 bloodstream isolate assessed as bacterial count at 16 ug/ml after 2 hrs by time-kill assay
Staphylococcus aureus [33] = experiment: Antibacterial activity against methicillin resistant Staphylococcus aureus MED 1805 bloodstream isolate assessed as bacterial count at 4 ug/ml after 8 hrs by time-kill assay
Staphylococcus aureus [34] = experiment: Antibacterial activity against methicillin resistant Staphylococcus aureus MED 1805 bloodstream isolate assessed as bacterial count at 4 ug/ml after 4 hrs by time-kill assay
Staphylococcus aureus [35] = experiment: Antibacterial activity against methicillin resistant Staphylococcus aureus MED 1805 bloodstream isolate assessed as bacterial count at 4 ug/ml after 2 hrs by time-kill assay
Staphylococcus aureus [36] = experiment: Antibacterial activity against methicillin resistant Staphylococcus aureus MED 1805 bloodstream isolate assessed as bacterial count at 2 ug/ml after 8 hrs by time-kill assay
Staphylococcus aureus [37] = experiment: Antibacterial activity against methicillin resistant Staphylococcus aureus MED 2028 osteomyelitis isolate assessed as bacterial count at 16 ug/ml after 24 hr by time-kill assay
Staphylococcus aureus [38] = experiment: Antibacterial activity against methicillin resistant Staphylococcus aureus MED 2028 osteomyelitis isolate assessed as bacterial count at 16 ug/ml after 8 hrs by time-kill assay
Staphylococcus aureus [39] = experiment: Antibacterial activity against methicillin resistant Staphylococcus aureus MED 2028 osteomyelitis isolate assessed as bacterial count at 16 ug/ml after 2 hrs by time-kill assay
Staphylococcus aureus [40] = experiment: Antibacterial activity against methicillin resistant Staphylococcus aureus MED 2028 osteomyelitis isolate assessed as bacterial count at 8 ug/ml after 24 hrs by time-kill assay
Staphylococcus aureus [41] = experiment: Antibacterial activity against methicillin resistant Staphylococcus aureus MED 2028 osteomyelitis isolate assessed as bacterial count at 8 ug/ml after 8 hrs by time-kill assay
Staphylococcus aureus [42] = experiment: Antibacterial activity against methicillin resistant Staphylococcus aureus MED 2028 osteomyelitis isolate assessed as bacterial count at 4 ug/ml after 8 hrs by time-kill assay

CCCCCCCCCCNCCN[C@@]1(C)C[C@H](O[C@H]2[C@H](Oc3c4cc5cc3Oc3ccc(cc3Cl)[C@@H](O)[C@@H](NC(=O)[C@@H](CC(C)C)NC)C(=O)N[C@@H](CC(N)=O)C(=O)N[C@H]5C(=O)N[C@H]3C(=O)N[C@H](C(=O)N[C@H](C(=O)O)c5cc(O)c(CNCP(=O)(O)O)c(O)c5-c5cc3ccc5O)[C@H](O)c3ccc(c(Cl)c3)O4)O[C@H](CO)[C@@H](O)[C@@H]2O)O[C@@H](C)[C@H]1O [TELAVANCIN]
log10CFU/ml (Staphylococcus aureus [1]): 3.4 | log10CFU/ml (Staphylococcus aureus [2]): 0.7 | MIC50 (Enterococcus faecium): 8 µg/mL (≈ 4.56 µM) | MIC90 (Enterococcus faecium): 16 µg/mL (≈ 9.11 µM) | MIC (Streptococcus mitis): 0.015 µg/mL (≈ 0.00854 µM) | MIC50 (Streptococcus mitis): inactive | MIC90 (Streptococcus mitis): inactive | MIC50 (Streptococcus agalactiae [3]): 0.06 µg/mL (≈ 0.0342 µM) | MIC90 (Streptococcus agalactiae [3]): 0.06 µg/mL (≈ 0.0342 µM) | MIC50 [4]: 0.5 µg/mL (≈ 0.285 µM) | MIC90 [4]: 1 µg/mL (≈ 0.57 µM) | MIC50 (Staphylococcus capitis): 0.5 µg/mL (≈ 0.285 µM) | MIC90 (Staphylococcus capitis): 1 µg/mL (≈ 0.57 µM) | MIC50 [5]: 0.5 µg/mL (≈ 0.285 µM) | MIC90 [5]: 1 µg/mL (≈ 0.57 µM) | log10CFU/ml (Streptococcus pyogenes [6]): 2.2 | log10CFU/ml (Streptococcus pyogenes [7]): 0.7 | log10CFU/ml (Streptococcus pyogenes [8]): 2.2 | log10CFU/ml (Streptococcus pyogenes [9]): 2.3 | log10CFU/ml (Streptococcus pyogenes [10]): 3.1 | log10CFU/ml (Enterococcus faecalis [11]): 0.8 | log10CFU/ml (Enterococcus faecalis [12]): 0.5 | log10CFU/ml (Enterococcus faecalis [13]): 0.7 | log10CFU/ml (Streptococcus pyogenes [14]): 0.5 | log10CFU/ml (Streptococcus pyogenes [15]): 0.4 | log10CFU/ml (Streptococcus agalactiae [16]): 1.1 | log10CFU/ml (Streptococcus agalactiae [17]): 0.8 | log10CFU/ml (Streptococcus agalactiae [18]): 1.6 | log10CFU/ml (Streptococcus agalactiae [19]): 3.6 | log10CFU/ml (Streptococcus agalactiae [20]): 0.9 | log10CFU/ml (Streptococcus agalactiae [21]): 0.6 | log10CFU/ml (Streptococcus agalactiae [22]): 0.8 | log10CFU/ml (Streptococcus pneumoniae [23]): 2.6 | log10CFU/ml (Streptococcus pneumoniae [24]): 1.7 | log10CFU/ml (Streptococcus pneumoniae [25]): 1.2 | log10CFU/ml (Streptococcus pneumoniae [26]): 3.4 | log10CFU/ml (Streptococcus pneumoniae [27]): 1.9 | log10CFU/ml (Streptococcus pneumoniae [28]): 3.4 | log10CFU/ml (Streptococcus pneumoniae [29]): 3.4 | log10CFU/ml [30]: 3.3 | log10CFU/ml [31]: 0.2 | log10CFU/ml (Staphylococcus aureus [32]): 0.7 | log10CFU/ml (Staphylococcus aureus [33]): 3 | log10CFU/ml (Staphylococcus aureus [34]): 1.8 | log10CFU/ml (Staphylococcus aureus [35]): 1.2 | log10CFU/ml (Staphylococcus aureus [36]): 2.7 | log10CFU/ml (Staphylococcus aureus [37]): 3.4 | log10CFU/ml (Staphylococcus aureus [38]): 2.3 | log10CFU/ml (Staphylococcus aureus [39]): 0.3 | log10CFU/ml (Staphylococcus aureus [40]): 3.4 | log10CFU/ml (Staphylococcus aureus [41]): 3.4 | log10CFU/ml (Staphylococcus aureus [42]): 3.4
